Article PMC12645191, “Dicarboxylate and dicarboxylic acid appended supramolecular self-associating amphiphiles as antimicrobial agents against high priority bacterial pathogens” (Organic & Biomolecular Chemistry, 2025)
Where “and” joins values, the source holds several entries; their conditions need not be identical. Equal values may be shown once. Read-outs that look alike come from different tables or passages of the source.

Key:
[1] = protein binding in human plasma by equilibrium dialysis; assay type: in vitro ADME; conditions: human plasma, 5 µM, 37 °C; for recovery at 6 h, 5 µM / remaining at 6 h, 5 µM / fraction unbound at 6 h, 5 µM: human; for remaining at 6 h, 5 µM / fraction unbound at 6 h, 5 µM: plasma
Method: Metabolic stability was assessed in mouse and rat liver microsomes. […] A plasma protein binding assay was performed to assess the extent of compound binding to plasma proteins. This is key as only unbound compound is free to distribute and exert a pharmacological effect. […] To assess the potential for this sub-class of SSAs to be developed as drugs for oral administration, Caco-2 permeability assays were also performed, as a cellular model indicative of human intestinal permeability. […] The […] MS/MS analysis. Samples were analysed using a Shimadzu liquid chromatography system coupled to a Triple Quad 6500+ mass spectrometry (AB Inc.) Separation of compounds was achieved using an HSS T3 column (50 x 2.1 mm) at a temperature of 40 °C and a binary mobile phase gradient at a flow rate of 0.7 mL/min. […] This was ramped to 95 % solvent B at 0.7 minutes, held for 0.5 minutes and then […] returned to initial conditions. Sample analysis was by electrospray ionisation. Protein Binding Measurements in Human Plasma by Using Equilibrium Dialysis Method : The fraction unbound in human plasma (P -KB, Ltd People's hospital of Shandong) were measured using 96-well Equilibrium Dialysis Plate (HTDialysis LLC, Gales Ferry, CT). Human plasma containing 5 μM test compound were dialysed against dialysis buffer (PBS) with initial samples taken to allow for assessment of plasma stability and recovery before the plate was incubated for 6 hours at 37 °C at 5 % CO2. Samples were removed at 6 hours, and all samples […] appropriate analytical internal standard. Samples were centrifuged at 3,220 g for 30 minutes (Eppendorf 5810R) to precipitate protein and enable sampling of supernatant prior to appropriate dilution for liquid chromatography mass -spectrometry (LC-MS/MS) analysis. Samples were analysed using a Shimadzu coupled to a triple Quad 6500 + (AB Inc., Illinois). Separation of analytes was achieved using a Xselect Hss T3 (2.1 x 50 mm) column at a temperature of 40 °C and a binary mobile phase gra dient at a flow rate of 0.8 mL/min. Initial […] formic acid in acetonitrile); this was ramped to 98 % B at 0.5 min, held for 0.4 min and then immediately returned to initial conditions. Sample analysis was by electrospray ionisation in positive ion mode. Bi-directional Permeability in Caco-2 Cell Line: The bi-directional permeability in Caco-2 cell lines was determined by seeding cells onto an HTS Transwell plate. Cells were cultivated for 14-18 days in a cell culture incubator at 37 °C, 5 % CO2, 95 % relative humidity. Cell culture medium was replaced every other day. To assess monolayer integrity the transepithelial electrical resistance (TEER) across the monolayer was measured using Millicell Epithelial volt-ohm meter prior to assay and Lucifer yellow (LY) fluorescence measurement post-assay. Test and control compounds were prepared in DMSO and diluted in Hank's Balanced Saline […] Compound was added to the donor compartment of the transwell plate for both apical to basolateral (A>B) and basolateral to apical (B>A) measurements, with blank HBSS being added to the receiver compartment. The transwell plate was then incubated at 37 °C, 5 % CO2 for 2 hours. 5

E. faecalis NCTC 775 = test: inhibition of bacterial growth, OD600 after 20 h; assay type: cell-based, Enterococcus faecalis; conditions: SSA 5.0 mM, 2.5% ethanol, negative = enhanced growth
Method: With the self-associative properties of 1–10 established, the antimicrobial activity of these SSAs were determined against a panel of clinically relevant, high-priority pathogens including: P. aeruginosa PAO1; Klebsiella pneumonia (K. pneumoniae) M6; E. coli NCTC 12923; Acinetobacter baumannii (A. baumannii) ATCC 17978; S. aureus ATCC 9144; Enterococcus faecalis (E. faecalis) NCTC 775; and Enterococcus faecium (E. faecium) NCTC 12204. […] However, it should be noted that the SSA stock solution was prepared in a H2O 5% EtOH solution, to ensure that the SSA aggregates formed were in line with those characterised within the scope of the SSA self-association studies.
Section 3: Biological methods
These methods were taken directly from UK Health and Security Office (UKHSA) standard […]
Preparation of Luria Broth media (LB): Yeast extract (5.0 g), tryptone (10.0 g) and sodium chloride (10.0 g) were dissolved in dH₂O (1.0 L) then divided into bottles and autoclaved.
Preparation of Luria Broth (LB) agar plates: Agar (6.0 g) was added to LB (400 mL) and autoclaved. Once cool, the LB agar was poured into sterile petri dishes under sterile conditions and allowed to set. LB plates were stored at 4 °C until use.
Preparation of bacterial plates: Sterile LB agar plates were streaked using streaked using the desired bacteria i) Pseudomonas aeruginosa (P.aeruginosa) PAO1, ii) Klebsiella pneumoniae (K. pneumoniae) M6 iii) E. coli NCTC 12923 and iv) Acinetobacter baumannii (A. baumannii) ATCC 17978 and Gram-positive i) Staphylococcus aureus (S. aureus) ATCC 9144 ii) Enterococcus faecalis (E. faecalis) NCTC 775 and iii) Enterococcus faecium (E. faecium ) NCTC 12204, then incubated at 37 °C overnight.
Preparation of Inoculum: An initial culture was made up by inoculating LB media (5 mL) with a single colony of bacteria under sterile conditions and incubated at 37 °C with shaking overnight. The following day, overnight bacterial cultures were subcultured into fresh LB medium to a starting OD600 of 0.01.
Preparation of 96 well microplate for MIC50: The 1:100 cell suspension (150 µL) was dispensed into individual wells under sterile conditions. SSAs (30 µL) were added to the wells to equal a total volume of 180 µL in the wells. Six repeats of each concentration for each SSA were created each plate. The plates were sealed using parafilm, then incubated at 37 °C in a microplate reader for 20 hours. OD600 endpoint data was used to generate growth curves. […]

[2] = 6 hours, read-out: % Bound (converted)

recovery at 6 h, 5 µM ([1]; 6 hours) [%]	remaining at 6 h, 5 µM [1] [%]	fraction unbound at 6 h, 5 µM [1, 2]	fraction unbound at 6 h, 5 µM ([1]; 6 hours, read-out: % Unbound)	% Remaining at 6 hr [1] [%]	% Bound ([1]; 6 hours) [%]	% Recovery ([1]; 6 hours) [%]	% Unbound ([1]; 6 hours) [%]	Compound	Percentage inhibition of bacterial growth, NCTC 775 (E. faecalis) (E. faecalis NCTC 775)	inhibition at 5000 µM (E. faecalis NCTC 775; Enterococcus faecalis, NCTC775, 20 h, read-out: Percentage inhibition of bacterial growth, NCTC 775 (E. faecalis)) [%]	Percentage inhibition of bacterial growth, NCTC 775 (E. faecalis) (E. faecalis NCTC 775; listed as 3) [%]	Percentage inhibition of bacterial growth, NCTC 775 (E. faecalis) (E. faecalis NCTC 775; listed as 9) [%]
97.3	104	0.217	0.217	–	–	–	–	O=C(O)CC[C@H](NC(=O)Nc1ccc(C(F)(F)F)cc1)C(=O)O [SSA 1]	98.79% and 99%	–	–	–
–	–	–	–	108.64	78.73	97.50	21.27	O=C(O)CC[C@H](NC(=O)Nc1ccc(C(F)(F)F)cc1)C(=O)O [SSA 2]	21.86% and 22%	–	–	–
99.6	102	0.23	0.23	–	–	–	–	O=C(O)CC[C@@H](NC(=O)Nc1ccc(C(F)(F)F)cc1)C(=O)O [SSA 3]	–	98.8	99	–
94.9	106	0.166	0.166	–	–	–	–	O=C(O)CC[C@H](NC(=O)Nc1ccc(Br)cc1)C(=O)O [SSA 9]	–	–	–	20
